Results as given in PubChem BioAssay (NCI).
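Tested at 5 concentrations; 48 h exposure; 96-well plates; endpoints linearly interpolated, else capped at highest concentration. GI50: concentration for 50% inhibition of growth. TGI denotes the concentration required for complete inhibition of growth.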

Legend:
Experiment in all cases: growth of human tumour cells (NCI), 48 h
[1] = tested on: OVCAR-3 ovarian
[2] = tested on: SN12C renal
[3] = tested on: OVCAR-8 ovarian
[4] = tested on: SNB-19 CNS
[5] = tested on: A549 NSCLC
[6] = tested on: U251 CNS
[7] = tested on: HCC-2998 colon
[8] = tested on: MALME-3M melanoma
[9] = tested on: SF-539 CNS
[10] = tested on: SNB-75 CNS
[11] = tested on: TK-10 renal
[12] = tested on: SK-OV-3 ovarian
[13] = tested on: HL-60(TB) leukemia
[14] = tested on: CAKI-1 renal
[15] = tested on: MDA-MB-231 breast
[16] = tested on: ACHN renal
[17] = tested on: SK-MEL-2 melanoma
[18] = tested on: OVCAR-4 ovarian
[19] = tested on: NCI/ADR-RES ovarian
[20] = tested on: T-47D breast
[21] = tested on: MCF7 breast
[22] = tested on: NCI-H522 lung
[23] = tested on: KM12 colon
[24] = tested on: OVCAR-5 ovarian
[25] = tested on: MOLT-4 leukemia
[26] = tested on: SK-MEL-28 melanoma
[27] = tested on: SW-620 colon
[28] = tested on: 786-0 renal
[29] = tested on: NCI-H226 lung
[30] = tested on: LOX IMVI melanoma
[31] = tested on: SF-295 CNS
[32] = tested on: UACC-257 melanoma
[33] = tested on: SR leukemia
[34] = tested on: RPMI-8226 leukemia
[35] = tested on: IGROV1 ovarian
[36] = tested on: HT29 colon
[37] = tested on: M14 melanoma
[38] = tested on: SK-MEL-5 melanoma
[39] = tested on: HCT-116 colon
[40] = tested on: UACC-62 melanoma
[41] = tested on: HOP-92 NSCLC
[42] = tested on: PC-3 prostate
[43] = tested on: COLO 205 colon
[44] = tested on: RXF 393 renal
[45] = tested on: NCI-H460 lung
[46] = tested on: MDA-MB-435
[47] = tested on: UO-31 renal
[48] = tested on: HCT-15 colon
[49] = tested on: HS 578T breast
[50] = tested on: HOP-62 NSCLC
[51] = tested on: DU-145 prostate
[52] = tested on: K-562 leukemia
[53] = tested on: SF-268 CNS
[54] = tested on: NCI-H23 lung
[55] = tested on: BT-549 breast
[56] = tested on: CCRF-CEM leukemia
[57] = tested on: A498 renal

`CS(=O)(=O)Nc1ccc(Nc2c3ccccc3nc3cc(N)ccc23)cc1` showed a GI50 [1] of 1.7 µM, a TGI [1] of 8.83 µM and a GI50 [2] of 0.15 µM. It also gave a TGI [2] of 4.88 µM, a GI50 [3] of 0.376 µM and a TGI [3] of 22.2 µM. For the same compound, the GI50 [4] was 0.241 µM, the TGI [4] was 15.4 µM and the GI50 [5] was 0.062 µM. For the same compound, the TGI [5] was 15.6 µM, the GI50 [6] was 0.0794 µM and the TGI [6] was 1.3 µM. For the same compound, the GI50 [7] was 5.22 µM, the TGI [7] was 24.4 µM and the GI50 [8] was 0.62 µM. For the same compound, the TGI [8] was 3.66 µM, the GI50 [9] was 0.531 µM and the TGI [9] was 9.47 µM. It also gave a GI50 [10] of 0.726 µM, a TGI [10] of 12.4 µM and a GI50 [11] of 6.08 µM. The TGI [11] was 31.7 µM, the GI50 [12] was 1.31 µM and the TGI [12] was 27.7 µM. For the same compound, the GI50 [13] was 0.769 µM, the TGI [13] was 8.51 µM and the GI50 [14] was 0.319 µM. For the same compound, the TGI [14] was 13 µM, the GI50 [15] was 12.4 µM and the TGI [15] was 34 µM. The GI50 [16] was 0.231 µM, the TGI [16] was 17.8 µM and the GI50 [17] was 2.26 µM. The TGI [17] was 7.04 µM, the GI50 [18] was 2.92 µM and the TGI [18] was 26.8 µM. For the same compound, the GI50 [19] was > 100 µM, the TGI [19] was > 100 µM and the GI50 [20] was 0.0806 µM. For the same compound, the TGI [20] was 2.52 µM, the GI50 [21] was 0.052 µM and the TGI [21] was 9.16 µM. It also gave a GI50 [22] of 0.164 µM, a TGI [22] of 2.69 µM and a GI50 [23] of 0.499 µM. It also gave a TGI [23] of 7.14 µM, a GI50 [24] of 5.57 µM and a TGI [24] of 39.7 µM. For the same compound, the GI50 [25] was 0.0194 µM, the TGI [25] was 0.987 µM and the GI50 [26] was 1.9 µM. It also gave a TGI [26] of 16.2 µM, a GI50 [27] of 0.561 µM and a TGI [27] of 30 µM. For the same compound, the GI50 [28] was 0.277 µM, the TGI [28] was 4.66 µM and the GI50 [29] was 0.246 µM. It also gave a TGI [29] of 3.89 µM, a GI50 [30] of 0.418 µM and a TGI [30] of 15.2 µM. For the same compound, the GI50 [31] was 0.227 µM, the TGI [31] was 6.79 µM and the GI50 [32] was 1.48 µM. It also gave a TGI [32] of 14.9 µM, a GI50 [33] of 0.035 µM and a TGI [33] of 1.19 µM. For the same compound, the GI50 [34] was 0.567 µM, the TGI [34] was 6.84 µM and the GI50 [35] was 5.38 µM. For the same compound, the TGI [35] was > 73.6 µM, the GI50 [36] was 5.15 µM and the TGI [36] was 31.7 µM. For the same compound, the GI50 [37] was 0.361 µM, the TGI [37] was 7.1 µM and the GI50 [38] was 0.615 µM. For the same compound, the TGI [38] was 5.45 µM, the GI50 [39] was 0.717 µM and the TGI [39] was 29.2 µM. It also gave a GI50 [40] of 0.555 µM, a TGI [40] of 14.8 µM and a GI50 [41] of 0.398 µM. The TGI [41] was 4.4 µM, the GI50 [42] was 1.31 µM and the TGI [42] was 27.1 µM. The GI50 [43] was 2.51 µM, the TGI [43] was 20 µM and the GI50 [44] was 12.5 µM. The TGI [44] was 34.9 µM, the GI50 [45] was 0.0255 µM and the TGI [45] was 2.6 µM. It also gave a GI50 [46] of 5.79 µM, a TGI [46] of 21.6 µM and a GI50 [47] of 3.13 µM. The TGI [47] was > 100 µM, the GI50 [48] was 11 µM and the TGI [48] was > 100 µM. The GI50 [49] was 1.72 µM, the TGI [49] was 13.4 µM and the GI50 [50] was 0.26 µM. For the same compound, the TGI [50] was 10.2 µM, the GI50 [51] was 0.48 µM and the TGI [51] was 26 µM. For the same compound, the GI50 [52] was 1.31 µM, the TGI [52] was 23.9 µM and the GI50 [53] was 0.0222 µM. It also gave a TGI [53] of 5.69 µM, a GI50 [54] of 0.436 µM and a TGI [54] of 12.8 µM. The GI50 [55] was 1.35 µM, the TGI [55] was 8.41 µM and the GI50 [56] was 0.0776 µM. For the same compound, the TGI [56] was 2.04 µM, the GI50 [57] was 1.32 µM and the TGI [57] was 17.4 µM.
